{"source": "paper PMC12040169", "about": "(PLOS Biology, 2025)"}
{"assay": "in vitro", "conditions": "human, hela cells, % viability", "units": {"viability at 28.5 h, 10 µM": "%"}}
{"smiles": "O=C(NCc1ccccc1)c1cccc(NC(=O)c2cc(-c3ccccn3)nc3ccc(Cl)cc23)c1", "note": "[CBK267768]", "viability at 28.5 h, 10 µM": 94}
{"smiles": "OCCN1CCC2(CC1)CN(CCO)c1ccccc12", "note": "[CBK126759]", "viability at 28.5 h, 10 µM": 87.4}
{"smiles": "O=C(/C=C/c1cn(C2CC(O)C(CO)O2)c(=O)[nH]c1=O)NCCCCCCNC(=O)C(F)(F)F", "note": "(centres unmarked) [CBK201310]", "viability at 28.5 h, 10 µM": 94.3}
{"smiles": "CCc1nc2ccc(C(=O)N(C)CCN(C)C)cn2c1N(C)C(=O)Cc1ccccc1", "note": "[CBK146858]", "viability at 28.5 h, 10 µM": 90.8}
{"smiles": "Nc1ncnc(Nc2ccc(Nc3ccccc3)cc2)c1[N+](=O)[O-]", "note": "[CBK267347]", "viability at 28.5 h, 10 µM": 88.9}
{"smiles": "COC1C(O)C(CO)OC1n1cc(F)c(SC)nc1=O", "note": "(centres unmarked) [CBK201267]", "viability at 28.5 h, 10 µM": 106}
{"smiles": "O=C(CSc1ncnc2scc(-c3ccc(Cl)cc3)c12)Nc1nsc(-c2ccccc2)n1", "note": "[CBK266473]", "viability at 28.5 h, 10 µM": 96.6}
{"smiles": "O=C(Nc1cccc2[nH]ccc12)c1ccc(Cl)cc1", "note": "[CBK159632]", "viability at 28.5 h, 10 µM": 91.7}
{"smiles": "O=c1[nH]cc([C@H]2C[C@@H](O)[C@@H](CO)O2)c(=O)[nH]1", "note": "[CBK201158]", "viability at 28.5 h, 10 µM": 95.4}
{"smiles": "COc1ccc(CCNC(=O)N2CCCC(C(=O)O)C2)cc1OC", "note": "(centres unmarked) [CBK161354]", "viability at 28.5 h, 10 µM": 100}
{"smiles": "c1cnc(N2CCNCC2)c(OC2CCCCC2)n1", "note": "[CBK001837C]", "viability at 28.5 h, 10 µM": 92.7}
{"smiles": "CCOc1cc(CN2CCN(C/C=C/c3ccccc3)CC2)ccc1OC", "note": "[CBK261573]", "viability at 28.5 h, 10 µM": 87.2}
{"smiles": "CC(CC(=O)O)CC(=O)N1CCC2(CC1)NC(=O)Cc1ccccc12", "note": "(centres unmarked) [CBK047281]", "viability at 28.5 h, 10 µM": 95.3}
{"smiles": "Cc1ccccc1OCCCn1cncc1-c1cnn(C)c1", "note": "[CBK281762]", "viability at 28.5 h, 10 µM": 91.1}
{"smiles": "COc1cc(/C=C2/SC(=S)N(CC(=O)O)C2=O)cc(Br)c1OCc1ccccn1", "note": "[CBK265598]", "viability at 28.5 h, 10 µM": 115}
{"smiles": "O=C(NCCc1c[nH]c2ccc(Cl)cc12)c1cc(F)c(Cl)cc1F", "note": "[CBK159763]", "viability at 28.5 h, 10 µM": 93.6}
{"smiles": "c1ccc2cc(CCN3CCC(Oc4nccnc4OCCN4CCOCC4)CC3)ccc2c1", "note": "[CBK082942T]", "viability at 28.5 h, 10 µM": 90.7}
{"smiles": "O=C(CN1CCCCC1)N1CCCC1c1nc2ccccc2[nH]1", "note": "(centres unmarked) [CBK283935]", "viability at 28.5 h, 10 µM": 104}
{"smiles": "COc1ccc(C(=O)CSc2nnc(-c3ccc4c(c3)OCO4)n2-c2ccccc2)cc1", "note": "[CBK263592]", "viability at 28.5 h, 10 µM": 80.7}
{"smiles": "Cc1cc(=O)oc2cc(NC(=S)NNC(=O)C(C)Sc3nc4ccccc4s3)ccc12", "note": "(centres unmarked) [CBK267056]", "viability at 28.5 h, 10 µM": 102}
{"smiles": "CCN1CCOC(CNc2nc(-c3ccncc3)nc3c2CCC3)C1", "note": "(centres unmarked) [CBK306215]", "viability at 28.5 h, 10 µM": 88.4}
{"smiles": "O=C(CCn1c(-c2ccccn2)cc2cccnc21)NC1CCCC1", "note": "[CBK284965]", "viability at 28.5 h, 10 µM": 98.3}
{"smiles": "CC(=O)Oc1ccc2c(=O)c(C3NC(C(=O)O)Cc4c3[nH]c3ccccc43)coc2c1", "note": "(centres unmarked) [CBK293948]", "viability at 28.5 h, 10 µM": 120}
{"smiles": "COc1cccc(CC(=O)N2CCC(Cc3ccc(-c4ccccc4)cc3)(C(N)=O)CC2)c1", "note": "[CBK285776]", "viability at 28.5 h, 10 µM": 94.2}
{"smiles": "CCN1CCC(CC(=O)NCCn2ccnc2C)CC1", "note": "[CBK281984]", "viability at 28.5 h, 10 µM": 108}
{"smiles": "CC(C)Oc1ncccc1OCc1ccccc1", "note": "[CBK001457]", "viability at 28.5 h, 10 µM": 124}
{"smiles": "Cc1ccc(CN2CCC(N3C(=O)NC4(CCN(CC(C)C)CC4)C3=O)CC2)cc1C", "note": "[CBK285822]", "viability at 28.5 h, 10 µM": 96.9}
{"smiles": "O=C(c1ccncc1)N1CCc2ccccc21", "note": "[CBK200280]", "viability at 28.5 h, 10 µM": 93.7}
{"smiles": "Cc1ccc(-c2csc(CC#N)n2)cc1", "note": "[CBK047576]", "viability at 28.5 h, 10 µM": 79.3}
{"smiles": "O=C(OCc1nnsc1Cl)c1ccc(C(=O)c2ccccc2)cc1", "note": "[CBK297897]", "viability at 28.5 h, 10 µM": 109}
{"smiles": "c1ccc(COCCCN2CCC3(CC2)OCCc2c3[nH]c3ccccc23)cc1", "note": "[CBK040208]", "viability at 28.5 h, 10 µM": 84.8}
{"smiles": "CCCC[C@H]1CC[C@H](C(=O)Oc2ccc(OC(C)C(=O)O)cc2)CC1", "note": "(some centres unmarked) [CBK160854]", "viability at 28.5 h, 10 µM": 93.8}
{"smiles": "O=C(Nc1nccc(-c2cc(OCC(F)(F)F)ccc2OCC(F)(F)F)n1)c1cccs1", "note": "[CBK005949]", "viability at 28.5 h, 10 µM": 95.5}
{"smiles": "COc1ccc(C(=O)Nc2nc(OC)cnc2-c2ccsc2)cc1", "note": "[CBK145293]", "viability at 28.5 h, 10 µM": 81.4}
{"assay": "in vitro", "conditions": "human, hela cells, % viability, bulk resorufin, single well", "units": {"viability at 28.5 h, 10 µM": "%"}}
{"smiles": "CCOC(=O)C1(c2ccccc2)CCN(C(=O)C(c2ccccc2)c2ccccc2)CC1", "note": "[CBK132202]", "viability at 28.5 h, 10 µM": 100}
